The structures appear in SMILES notation.

The target of test [1] is phosphatidylserine synthase 1 (PSS1) (Homo sapiens, UniProt P48651, P269S). The test is classed as biochemical.
Test [2] has as its target phosphatidylserine synthase 1 (PSS1) (Homo sapiens, UniProt P48651). Description: cryo-EM structure at […] Å. It is filed as biochemical.

In the case of `CC(F)(F)CN1C(=O)c2[nH]nc(-c3cccc4[nH]c(=O)oc34)c2[C@@H]1c1ccc(Oc2cc(C(F)(F)F)cc(C(F)(F)F)c2)cc1` [DS, DS55980254], the figures for the 50% inhibitory concentration (IC50) in test [1] and in test [2] were 1.27 µM and 1.65 µM, respectively.

A word on the IC50: it is the concentration needed to halve the response being measured. A lower IC50 goes with greater potency.

The record behind these values is publication PMC11455612 (Cell, 2024).
